This note sets out measurements from patent US8518913B2, “Phosphorous derivatives as chemokine receptor modulators” (Allergan, Inc., priority 2010, dated 2013).

Read-outs that look alike come from different tables or passages of the source.

In the assay the target is T1, CCR2 receptor (Homo sapiens, UniProt P41597).
T1 construct: expressed in transfected cells
The assay can be described thus: CCR2 calcium activity assay on FLIPR Tetra in HEK-Gqi5 cells stably expressing CCR2. It is filed as cell-based. The protocol:
HEK-Gqi5 cells stably expressing CCR2 were cultured in (DMEM high glucose, 10% FBS, 1% PSA, 400 μg/ml geneticin and 50 μg/ml hygromycin. Appropriate positive control chemokines (MCP-1, MIP1A or RANTES) was used as the positive control agonist for screening compound-induced calcium activity assayed on the FLIPR^Tetra. The drug plates were prepared in 384-well microplates using the EP3 and the MultiPROBE robotic liquid handling systems. Compounds were synthesized and tested for CCR2 activity.

The mark [1] stands for this setting: HEK-Gqi5 cells stably expressing CCR2, calcium activity, FLIPR Tetra.
[2] abbreviates: HEK-Gqi5 cells stably expressing CCR2, calcium activity, FLIPR Tetra, read-out: CCR2 IC50.

In general, IC50 refers to the concentration that gives 50% inhibition.

T1 sequence (P41597 whole entry): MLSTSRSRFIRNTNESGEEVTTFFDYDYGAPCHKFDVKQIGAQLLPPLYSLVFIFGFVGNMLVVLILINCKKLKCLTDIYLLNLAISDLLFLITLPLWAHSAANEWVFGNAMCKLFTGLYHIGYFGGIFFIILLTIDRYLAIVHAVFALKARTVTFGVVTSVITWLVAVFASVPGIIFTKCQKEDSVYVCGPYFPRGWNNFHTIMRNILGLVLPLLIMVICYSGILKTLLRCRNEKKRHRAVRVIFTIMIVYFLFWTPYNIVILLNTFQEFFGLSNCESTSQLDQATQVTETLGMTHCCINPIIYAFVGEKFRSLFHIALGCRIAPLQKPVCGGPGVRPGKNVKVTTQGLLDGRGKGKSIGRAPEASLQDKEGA

On to `CCOP(C)(=O)c1ccc(Cl)cc1NS(=O)(=O)c1ccc(Cl)c(C(F)(F)F)c1` (centres unmarked) [Compound 1, Ethyl [4-chloro-2-({[4-chloro-3-(trifluoromethyl)phenyl]sulfonyl}amino)phenyl]methylphosphinate], for which the IC50 was 159 nM. The “CCR2 % ANTAGONISM” value under setting [1] worked out at 80%.

With `CP(=O)(c1ccc(Cl)cc1NS(=O)(=O)c1ccc(Cl)c(C(F)(F)F)c1)N1CCOCC1` (centres unmarked) [Compound 6, 4-Chloro-N-{5-chloro-2-[methyl(morpholin-4-yl)phosphoryl]phenyl}-3-(trifluoromethyl)benzenesulfonamide], the “CCR2 % ANTAGONISM” value under setting [1] is given as 93%. The IC50 under setting [2] turned out to be 15 nM.

Turning to `CP(=O)(c1ccc(Cl)cc1NS(=O)(=O)c1ccc(Cl)c(C(F)(F)F)c1)N1CCC(=O)CC1` (centres unmarked) [Compound 7, 4-Chloro-N-{5-chloro-2-[methyl(4-oxopiperidin-1-yl)phosphoryl]phenyl}-3-(trifluoromethyl)benzenesulfonamide], under setting [1], the “CCR2 % ANTAGONISM” value came to 87%. Moreover, the IC50 under setting [2] was found to be 25 nM.

With `CCCCOP(=O)(c1ccc(Cl)cc1NS(=O)(=O)c1ccc(Cl)c(C(F)(F)F)c1)N1CCC(=O)CC1` (centres unmarked) [Compound 10, Butyl [4-chloro-2-({[4-chloro-3-(trifluoromethyl)phenyl]sulfonyl}amino)phenyl](4-oxopiperidin-1-yl)phosphinate], the “CCR2 % ANTAGONISM” value under setting [1] is recorded as 84%. In addition, the IC50 under setting [2] stood at 537 nM.

On to `CCOP(=O)(c1ccc(Cl)cc1NS(=O)(=O)c1ccc(Cl)c(C(F)(F)F)c1)N1CCOCC1` (centres unmarked) [Compound 11, Ethyl [4-chloro-2-({[4-chloro-3-(trifluoromethyl)phenyl]sulfonyl}amino)phenyl]morpholin-4-ylphosphinate], for which, under setting [1], the “CCR2 % ANTAGONISM” value amounted to 65%. Besides, the concentration for half-maximal inhibition (IC50) under setting [2] came to 150 nM.

Consider `COP(=O)(c1ccc(Cl)cc1NS(=O)(=O)c1ccc(Cl)c(C(F)(F)F)c1)N1CCC(=O)CC1` (centres unmarked) [Compound 12, Methyl [4-chloro-2-({[4-chloro-3-(trifluoromethyl)phenyl]sulfonyl}amino)phenyl](4-oxopiperidin-1-yl)phosphinate], for which the “CCR2 % ANTAGONISM” value under setting [1] was 95%. For the same compound, the IC50 under setting [2] came out at 124 nM.

Consider `CP(C)(=O)c1ccc(Cl)cc1NS(=O)(=O)c1ccc(Cl)c(C(F)(F)F)c1` [Compound 15, 4-Chloro-N-[5-chloro-2-(dimethylphosphoryl)phenyl]-3-(trifluoromethyl)benzenesulfonamide], for which the “CCR2 % ANTAGONISM” value under setting [1] is on record as 92%. For the same compound, the IC50 under setting [2] worked out at 125 nM.
